Measurements published in patent US6849612B2, “Oligonucleotide modulation of cell adhesion” (ISIS Pharmaceuticals, Inc., priority 1993, dated 2005).
Strand notation (5' to 3'): a small letter for the sugar, then the base; units joined by * are phosphorothioate-linked, units joined directly phosphodiester-linked; [ ] holds rarer units or linkages, { } end groups; capitals alone tell only the bases. d = 2'-deoxy (DNA)

What was measured:
leukocyte migration = assay: Leukocyte migration into carrageenan-soaked sponges in mice; format: in vivo, mouse; settings: 3 mg/kg oral, after surgery, 6-8 hours later and at 21 hours; vs vehicle control
ICAM-1 [1] = assay: ELISA screening for ICAM-1 expression in interleukin-1β-stimulated cells (HUVEC and A549); format: cell-based, human; settings: interleukin-1β-stimulated cells, two cell lines (HUVEC, A549)
ICAM-1 [2] = assay: Immunoprecipitation of 35S-labelled ICAM-1 from A549 cells; format: cell-based, human; settings: 1 μM oligonucleotide, interleukin-1β
Experimental: The specificity of the antisense oligonucleotides ISIS 1570 and ISIS 1939 for ICAM-1 was evaluated by immunoprecipitation of ^35S-labelled proteins. A549 cells were grown to confluence in 25 cm^2 tissue culture flasks and treated with antisense oligonucleotides as described in Example 4. The cells were stimulated with interleukin-1β for 14 hours, washed with methionine-free DMEM plus 10% dialyzed fetal calf serum, and incubated for 1 hour in methionine-free medium containing 10% dialyzed fetal calf serum, 1 μM oligonucleotide and interleukin-1β as indicated. ^35S-Methionine/cysteine mixture (Tran^35S-label, purchased from ICN, Costa Mesa, Calif.) was added to the cells to an activity of 100 μCi/ml and the cells were incubated an additional 2 hours. Cellular proteins were extracted by incubation with 50 mM Tris-HCl pH 8.0, 150 mM NaCl, 1.0% NP-40, 0.5% deoxycholate and 2 mM EDTA (0.5 ml per well) at 4° C. for 30 minutes. The extracts were clarified by centrifugation at 18,000×g for 20 minutes. The supernatants were preadsorbed with 200 μl protein G-Sepharose beads (Bethesda Research Labs, Bethesda Md.) for 2 hours at 4° C., divided equally and incubated with either 5 μg ICAM-1 monoclonal antibody (purchased from AMAC Inc., Westbrook Me.) or HLA-A, B antibody (W6/32, produced by murine hybridoma cells obtained from the American Type Culture Collection, Bethesda, Md.) for 15 hours at 4° C. Immune complexes were trapped by incubation with 200 μl of a 50% suspension of protein G-Sepharose (v/v) for 2 hours at 4° C., washed 5 times with lysis buffer and resolved on an SDS-polyacrylamide gel. Proteins were detected by autoradiography.

[3] = tested on: adherence of HL-60 cells to human umbilical vein endothelial cells; assay: Cell adherence assay: DMSO differentiated HL-60 cells to TNF treated HUVEC; format: cell-based; settings: TNF-α stimulated HUVEC, Example 11; control 19%
Experimental: Target cells are grown as a monolayer in a multiwell plate, treated with oligonucleotide followed by cytokine. The adhering cells are then added to the monolayer cells and incubated for 30 to 60 minutes at 37° C. and washed to remove nonadhering cells. Cells adhering to the monolayer may be determined either by directly counting the adhering cells or prelabeling the cells with a radioisotope such as ^51Cr and quantitating the radioactivity associated with the monolayer as described. Dustin and Springer, J. Cell Biol. 1988, 107, 321-331. Antisense oligonucleotides may target either ICAM-1, VCAM-1 or ELAM-1 in the assay.
An example of the effects of antisense oligonucleotides targeting ICAM-1 mRNA on the adherence of DMSO differentiated HL-60 cells to tumor necrosis factor treated human umbilical vein endothelial cells is shown in FIG. 7. Human umbilical vein endothelial cells were grown to 80% confluence in 12 well plates. The cells were treated with 2 μM oligonucleotide diluted in Opti-MEM containing 8 μM DOTMA for 4 hours at 37° C. The medium was removed and replaced with fresh endothelial cell growth medium (EGM-UV) containing 2 μM of the indicated oligonucleotide and incubated 4 hours at 37° C. Tumor necrosis factor, 1 ng/ml, was added to cells as indicated and cells incubated for an additional 19 hours. The cells were washed once with EGM-UV and 1.6×10^6 HL-60 cells differentiated for 4 days with 1.3% DMSO added. The cells were allowed to attach for 1 hour at 37° C. and gently washed 4 times with Dulbecco's phosphate-buffered saline (D-PBS) warmed to 37° C. Adherent cells were detached from the monolayer by addition of 0.25 ml of cold (4EC) phosphate-buffered saline containing 5 mM EDTA and incubated on ice for 5 minutes. The number of cells removed by treatment with EDTA was determined by counting with a hemocytometer. Endothelial cells detached from the monolayer by EDTA treatment could easily be distinguished from HL-60 cells by morphological differences. In the absence of tumor necrosis factor, 3% of the HL-60 cells bound to the endothelial cells. Treatment of the endothelial cell monolayer with 1 ng/ml tumor necrosis factor increased the number of adhering cells to 59% of total cells added (FIG. 7).
Human umbilical vein endothelial (HUVEC) cells were grown and treated with oligonucleotides as in Example 4. Cells were treated with either ISIS 1939, ISIS 1940, or the control oligonucleotide ISIS 1821 for 4 hours, then stimulated with TNF-α for 20 hours. Basal HUVEC minimally bound HL-60 cells, while TNF-stimulated HUVEC bound 19% of the total cells added. Pretreatment of the HUVEC monolayer with 0.3 ìM ISIS 1939 reduced the adherence of HL-60 cells to basal levels, as shown in FIG. 11.

[4] = tested on: complementary DNA sequences (ICAM-1 target sites); assay: Tm of oligonucleotide hybridized to complementary DNA; format: binding, human; settings: 4 μM each strand, 100 mM Na+, 10 mM phosphate, 0.1 mM EDTA, pH 7.0; phosphorothioate vs complementary phosphodiester DNA
From the text: The antisense oligonucleotides (synthesized as phosphorothioates) were hybridized to their complementary DNA sequences (synthesized as phosphodiesters). […] Tm's and free energies of duplex formation were obtained from fits of data to a two-state model with linear sloping baselines ([…]. and D. H. […] Results are averages of at least three experiments.

[5] = tested on: C8161 human melanoma cells; assay: Experimental metastasis assay of oligonucleotide-treated C8161 cells in athymic nude mice; format: in vivo
Experimental: To evaluate the role of ICAM-1 in metastasis, experimental metastasis assays were performed by injecting 1×10^5 C8161 cells into the lateral tail vein of athymic nude mice. […] Assoc. Cancer Res. 1990, 13, 353].
After 4 weeks, mice were sacrificed, organs were fixed in Bouin's fixative and metastatic lesions on lungs were scored with the aid of a dissecting microscope. Four-week-old female athymic nude mice (Harlan Sprague Dawley) were used. Animals were maintained under the guidelines of the NIH. Groups of 4-8 mice each were tested in experimental metastasis assays.
Treatment of C8161 cells with antisense oligonucleotides ISIS 1570 and ISIS 2302, complementary to ICAM-1, was performed in the presence of the cationic lipid, Lipofectin (Gibco/BRL, Gaithersburg, Md.). Antisense oligonucleotides were synthesized as described in Example 3. Cells were seeded in 60 mm tissue culture dishes at 10^6 cells/ml and incubated at 37 °C for 3 days, washed with OPTI-MEM (Gibco/BRL) 3 times and 100 μl of OPTI-MEM medium was added to each well. 0.5 μM oligonucleotide and 15 μg/ml lipofectin were mixed at room temperature for 15 minutes. 25 μl of the oligonucleotide-lipofectin mixture was added to the appropriate dishes and incubated at 37° C. for 4 hours. The oligonucleotide-lipofectin mixture was removed and replaced with DME-F12 medium containing 10% fetal calf serum. After 4 hours, 500 U/ml TNF-α was added to the appropriate wells and incubated for 18 hours at which time cells were removed from the plates, counted and injected into athymic nude mice.

ICAM-1 [6] = assay: ELISA of ICAM-1 cell surface expression in C8161 human melanoma cells; format: cell-based; settings: 15 μg/ml Lipofectin, 5 ng/ml TNF-α 16 hours
Experimental: (§1) ICAM-1 expression on the cell surface was measured by ELISA. Cells were treated with increasing concentrations of antisense oligonucleotides in the presence of 15 μg/ml Lipofectin for 4 hours at 37° C. ICAM-1 expression was induced by incubation with 5 ng/ml TNF-α for 16 hours. Cells were washed 3× in DPBS and fixed for 20 minutes in 2% formaldehyde. Cells were washed in DPBS, blocked with 2% BSA for 1 hour at 37° C. and incubated with ICAM-1 monoclonal antibody 84H10 (AMAC, Inc., Westbrook, Me.). Detection of bound antibody was determined by incubation with a biotinylated goat anti-mouse IgG followed by incubation with […] streptavidin and developed with chlorophenol red-β-D-galactopyranoside and quantified by absorbance at 575 nm. ICAM-1 mRNA levels were measured by Northern blot analysis.
The data were expressed as percentage of control activity, calculated as follows: (ICAM-1 expression for oligonucleotide-treated, cytokine-induced cells)−(basal ICAM-1 expression)/(ICAM-1 cytokine-induced expression)−(basal ICAM-1 expression)×100.

ICAM-1 [7] = assay: ELISA of ICAM-1 expression in A431 cells; format: cell-based; settings: human epidermal carcinoma A431 cells
Experimental: (§2) Expression of ICAM-1, VCAM-1 and ELAM-1 on the surface of cells can be quantitated using specific monoclonal antibodies in an ELISA. Cells are grown to confluence in 96 well microtiter plates. The cells are stimulated with either interleukin-1 or tumor necrosis factor for 4 to 8 hours to quantitate ELAM-1 and 8 to 24 hours to quantitate ICAM-1 and VCAM-1. Following the appropriate incubation time with the cytokine, the cells are gently washed three times with a buffered isotonic solution containing calcium and magnesium such as Dulbecco's phosphate buffered saline (D-PBS). The cells are then directly fixed on the microtiter plate with 1 to 2% paraformaldehyde diluted in D-PBS for 20 minutes at 25° C. The cells are washed again with D-PBS three times. Nonspecific binding sites on the microtiter plate are blocked with 2% bovine serum albumin in D-PBS for 1 hour at 37° C. Cells are incubated with the appropriate monoclonal antibody diluted in blocking solution for 1 hour at 37° C. Unbound antibody is removed by washing the cells three times with D-PBS. Antibody bound to the cells is detected by incubation with a 1:1000 dilution of biotinylated goat anti-mouse IgG (Bethesda Research Laboratories, Gaithersburg, Md.) in blocking solution for 1 hour at 37° C. Cells are washed three times with D-PBS and then incubated with a 1:1000 dilution of streptavidin conjugated to β-galactosidase (Bethesda Research Laboratories) for 1 hour at 37° C. The cells are washed three times with D-PBS for 5 minutes each. The amount of β-galactosidase bound to the specific monoclonal antibody is determined by developing the plate in a solution of 3.3 mM chlorophenolred-β-D-galactopyranoside, 50 mM sodium phosphate, 1.5 mM MgCl2; pH=7.2 for 2 to 15 minutes at 37° C. The concentration of the product is determined by measuring the absorbance at 575 nm in an ELISA microtiter plate reader. […]
(§3) Cells grown in 96-well plates were washed three times with Opti-MEM (GIBCO, Grand Island, N.Y.) prewarmed to 37° C. […] ICAM-1 expression was determined as described in Example 1. […]

ICAM-1 mRNA = assay: Northern blot of ICAM-1 mRNA in C8161 cells; format: cell-based, human; settings: Northern blot analysis
Experimental: as §1

ICAM-1 [8] = assay: ELISA of ICAM-1 expression in primary human keratinocytes; format: cell-based
Experimental: as §2, §3

[9] = tested on: human corneal donor buttons; assay: Human corneal donor buttons stored in OPTISOL with ISIS 2302
Experimental: Eleven human corneal donor buttons were stored in TM OPTISOL™ for 8 days and used as the control group. Additional corneal buttons were used for the experimental group and were stored in OPTISOL™ with either 200 μg/ml ISIS 2302 (n=10) or 400 μg/ml ISIS 2302 (n=8). Endothelial cell density was evaluated by specular microscopy. After 8 days, all corneas were prepared for SEM and photographs were taken of endothelial and epithelial surfaces.

In the case of `COc1ccc2c(c1)c(CC(=O)O)c(C)n2C(=O)c1ccc(Cl)cc1` [indomethacin], the “reduction in mean leukocyte count” value (leukocyte migration) was 79%.
For “ISIS 1940: P=S, human ICAM-1 3′-Untranslated (2975-2994), polyadenylation signal, SEQ ID NO 16, TTGAGAAAGCTTTATTAACT (antisense dT*dT*dG*dA*dG*dA*dA*dA*dG*dC*dT*dT*dT*dA*dT*dT*dA*dA*dC*dT)”, the “inhibition of ICAM-1 expression, relative activity in words” value (ICAM-1 [1]) was “did not inhibit ICAM-1 expression”, the “ICAM-1 synthesis” value (ICAM-1 [2]) was “did not significantly reduce ICAM-1 synthesis” and the “percentage of HL-60 cells adhering” value [3] was 9%. The Tm [4] was < 50 °C.
For “ISIS 2302: P=S, human ICAM-1 3′-Untranslated (2114-2133), SEQ ID NO 22 (antisense dG*dC*dC*dC*dA*dA*dG*dC*dT*dG*dG*dC*dA*dT*dC*dC*dG*dT*dC*dA)”, the “inhibition of ICAM-1 expression, relative activity in words” value (ICAM-1 [1]) was “most active of the series, with activity comparable to that of ISIS 1939”, the “No. Lung Metastases per Mouse (Mean ± S.E.M.)” value ([5]; C8161 cells treated with 0.5 μM oligonucleotide + Lipofectin + TNF-α, Lipofectin + TNF-α 81 ± 8) was 31 ± 8 and the “No. Lung Metastases per Mouse (Mean ± S.E.M.)” value ([5]; C8161 cells treated with 0.5 μM oligonucleotide + Lipofectin, no TNF-α, Lipofectin only 64 ± 13) was 23 ± 6. The “cell surface expression of ICAM-1” value (ICAM-1 [6]) was “decreased cell surface expression of ICAM-1”, the “inhibition of ICAM-1 expression” value (ICAM-1 [7]) was “inhibit ICAM-1 expression” and the “ICAM-1 mRNA levels” value (ICAM-1 mRNA) was “markedly reduced”. The “inhibition of ICAM-1 expression” value (ICAM-1 [8]) was “inhibit ICAM-1 expression”, the “toxicity to stored human corneas” value [9] was “not markedly toxic” and the “endothelial cell density by specular microscopy” value ([9]; 200 or 400 μg/ml in OPTISOL, after 2 or 8 days of storage, vs control) was “no difference in endothelial cell density”.
